“Also recorded” adds a separate entry of the source.
Tests used:
[1] = test system: HCC cell lines; assay: Apoptosis induction in HCC cell lines; assay type: cell-based; settings: 24 hours
Experimental: (§1) FIG. 3A-B: Inhibition of IRE1α RNase signalling with STF potentiates the effectiveness of Sorafenib in reducing liver cancer cell proliferation and inducing apoptosis. Effect of Sorafenib (SORA, 5 μM), STF-083010 (STF, 60 μM) and their combination on (A) liver cancer cell proliferation (HepG2, Huh7 and Hep3B) and on (B) inducing apoptosis. STF-083010 was added one hour before SORA. Stimulations were performed during 24 hours. $p<0.05 when comparing treated to untreated counterpart. Results are expressed as mean with SEM *p<0.05, **p<0.01, ***p<0.001 and ****p<0.0001.
(§2) FIG. 4: Hyperactive IRE1α RNase triggers secretion of pro-inflammatory markers. Effect of Sorafenib (SORA, […]), Ac-YVAD-CMK (YVAD, 25 μM) and their combination on liver cancer cell proliferation (HepG2) and on inducing apoptosis. Ac-YVAD-CMK (YVAD) was added one hour before SORA. Stimulations were performed during 24 hours. $p<0.05 when comparing treated to untreated counterpart. Results are expressed as mean with SEM *p<0.05, **p<0.01, ***p<0.001 and ****p<0.0001.

[2] = test system: liver cancer cell (HepG2, Huh7 and Hep3B); assay: Liver cancer cell proliferation; assay type: cell-based; settings: for liver cancer cell proliferation and apoptosis, alone and co-treated with sorafenib (confirmation of the STF-083010 data): data not shown
Experimental: as §1, §2
FIG. 5A-B: Co-treatment enhancing apoptosis via IRE1α kinase activity. Effect of Sorafenib (SORA, 5 μM), STF-083010 (STF, 60 μM) and their combination on HepG2 cells proliferation with or without (A) JNK inhibitor SP600125 (SP, 50 μM) pre-treatment or (B) Necrostatin (Nec-1, 50 μM) pre-treatment. Stimulations were performed during 24 hours. $p<0.05 when comparing treated to untreated counterpart. Results are expressed as mean with SEM *p<0.05, **p<0.01, ***p<0.001 and ****p<0.0001.

[3] = test system: xenograft HepG2 cells; assay: Xenograft mouse model of HCC, tumor volume; assay type: in vivo, mice
Experimental: FIG. 6A-B: Inhibition of IRE1α RNase activity with STF potentiates Sorafenib action in vivo. (A) Protocol timeline for Sorafenib (30 mg/kg i.p. daily) and/or STF-083010 (30 mg/kg i.p. twice a week) injections in mice with xenograft HepG2 cells. (B) Effect of SORA, STF, and their combination on tumor volume in mice. $p<0.05 when comparing treated to untreated counterpart. Results are expressed as mean with SEM *p<0.05.

[4] = test system: NLRP3 inflammasome; assay: Caspase-11 and NLRP3 overexpression in LPS-treated primary hepatocytes; assay type: cell-based, mouse; settings: LPS-treated BI-1−/− primary hepatocytes; STF-083010 60 μM
Experimental: (§3) Total protein was isolated from snap-frozen livers or primary hepatocytes homogenized in detergent-containing buffer, normalized for protein content (40 μg/tissue sample and 20 μg/cell sample), and analyzed by SDS-PAGE (8-15% gels) immunoblotting as previously described15. Western blot analyses were performed using antibodies described in Supporting Methods and detected with an enhanced chemiluminescence method (Amersham Biosciences, Piscataway, NJ, USA). Immunoblots were scanned and the signals were quantified using ImageJ software.
Hepatocytes from mouse liver were isolated by a two-step collagenase procedure, as we described18,23 and cultured in media detailed in Supporting Methods. When indicated, primary hepatocytes were transfected with Stealth siRNA (targeting BI-1, IRE1α, XBP1 or CHOP with the corresponding control of Low or Medium CG) at 30 nM using Lipofectamine RNAiMAX (ThermoFisher Scientific, Courtaboeuf, France) according to the manufacturer's instructions. After 48 hr of transfection, cells were treated with TM (1 μg/ml) or LPS (100 ng/ml) for the determined times. Primary hepatocytes isolated from the livers of BI-1−/− and WT mice were treated with TM or LPS in the presence or absence of STF-083010 (60 μM) or Ac-YVAD-CMK (25 μM). Cell viability was determined by a colorimetric assay (MTT) detailed in Supporting Methods. […]

[5] = test system: HFD-fed BI-1−/− mice; assay: HFD- or ND-fed BI-1+/+ and BI-1−/− mice treated with STF-083010 (NASH development); assay type: in vivo, mouse
Experimental: FIG. 1A-C: Early Into HFD feeding, limiting the ER stress response by inhibiting IRE1α RNase activity protects from steatosis and hyperglycemia. Starting 2.5 months after HFD feeding, BI-1+/+ and BI-1−/− mice were treated with STF-083010 (30 mg/kg) or vehicle (NT, Kolliphor 16%) twice a week for 2 weeks before sacrifice. (A) Relative liver triglyceride levels.
(A) Protocol timeline for vehicle (NT, Kolliphor 16%) or STF-083010 (30 mg/kg) injections in HFD-fed BI-1+/+ and BI-1−/− mice. (B) qPCR analysis of hepatic genes involved in lipid synthesis and metabolism (n=3). […] (C) Blood glucose concentrations in fed BI-1+/+ and BI-1−/− mice (n=6).
All animal procedures were conducted in compliance with French guidelines for the humane care and use of experimental animals. Male mice with targeted disruption of the BI-1 gene representing BI-1+/+(WT) and BI-1−/− littermates on a C57BL/6 background were obtained from Dr. John C. Reed at the Stanford-Burnham Institute for Medical Research (La Jolla, CA, USA)17,18. Experiments conducted with 12-week old mice included: 1) Mice injected intraperitoneally with TM (1 mg/kg) or vehicle and sacrificed 48 hr after treatment (unless otherwise indicated), 2) Animals either fed a ND (A04—Safe Diet, Augy, France) or HFD (60 kJ % fat, D12492-ssniff, Soest, Germany) for up to 9 months, 3) Towards the end of a 3-month ND or HFD, mice were injected with STF-083010 (30 mg/kg) or vehicle twice a week for 2 weeks before sacrifice. Mice were housed in a controlled environment with 12 hr light/dark cycles with water available ad libitum.
Liver tissue specimens were fixed in 10% buffered formalin, embedded in paraffin, sectioned (5 μm thick) and stained with either H&E, Masson's trichrome, MPO or TUNEL (Roche Molecular Biochemicals, Meylan, France). Specimens were evaluated by microscopy in a blinded manner by a liver pathologist.
(§4) Total RNA was extracted from liver tissue or cells then reverse-transcribed as previously described15. Real-time quantitative PCR was performed using the ABI PRISM 7500/Step-One Fast Real Time PCR System following the manufacturer's protocols in C3M genomics facilities. See the Supporting Methods for TaqMan gene expression assays.
as §3
Serum AST and ALT levels were determined using a standardized UV test after activation with pyridoxal-phosphate and serum triglyceride levels were determined by standardized enzymatic colorimetric assay (Roche-Hitachi analyzer Cobas 8000, Meylan, France). Hepatic triglyceride content was measured using a Triglycerides FS 10′ kit (DiaSys, Holzheim, Germany). Cytokines were quantitatively measured by flow cytometry as described15.

[6] = target: T1, IRE1α RNase activity (Mus musculus, UniProt Q9EQY0); assay: IRE1α RNase signaling (XBP1 mRNA, sXBP1 protein) in primary hepatocytes from BI-1−/− or WT mice; assay type: cell-based; settings: BI-1−/− primary hepatocytes; STF-083010 60 μM
T1 construct: Hepatocytes from mouse liver were isolated by a two-step collagenase procedure; endogenous in cells; host or cells: primary hepatocytes isolated from livers of BI-1−/− and WT mice
T1 sequence (Q9EQY0 21-977): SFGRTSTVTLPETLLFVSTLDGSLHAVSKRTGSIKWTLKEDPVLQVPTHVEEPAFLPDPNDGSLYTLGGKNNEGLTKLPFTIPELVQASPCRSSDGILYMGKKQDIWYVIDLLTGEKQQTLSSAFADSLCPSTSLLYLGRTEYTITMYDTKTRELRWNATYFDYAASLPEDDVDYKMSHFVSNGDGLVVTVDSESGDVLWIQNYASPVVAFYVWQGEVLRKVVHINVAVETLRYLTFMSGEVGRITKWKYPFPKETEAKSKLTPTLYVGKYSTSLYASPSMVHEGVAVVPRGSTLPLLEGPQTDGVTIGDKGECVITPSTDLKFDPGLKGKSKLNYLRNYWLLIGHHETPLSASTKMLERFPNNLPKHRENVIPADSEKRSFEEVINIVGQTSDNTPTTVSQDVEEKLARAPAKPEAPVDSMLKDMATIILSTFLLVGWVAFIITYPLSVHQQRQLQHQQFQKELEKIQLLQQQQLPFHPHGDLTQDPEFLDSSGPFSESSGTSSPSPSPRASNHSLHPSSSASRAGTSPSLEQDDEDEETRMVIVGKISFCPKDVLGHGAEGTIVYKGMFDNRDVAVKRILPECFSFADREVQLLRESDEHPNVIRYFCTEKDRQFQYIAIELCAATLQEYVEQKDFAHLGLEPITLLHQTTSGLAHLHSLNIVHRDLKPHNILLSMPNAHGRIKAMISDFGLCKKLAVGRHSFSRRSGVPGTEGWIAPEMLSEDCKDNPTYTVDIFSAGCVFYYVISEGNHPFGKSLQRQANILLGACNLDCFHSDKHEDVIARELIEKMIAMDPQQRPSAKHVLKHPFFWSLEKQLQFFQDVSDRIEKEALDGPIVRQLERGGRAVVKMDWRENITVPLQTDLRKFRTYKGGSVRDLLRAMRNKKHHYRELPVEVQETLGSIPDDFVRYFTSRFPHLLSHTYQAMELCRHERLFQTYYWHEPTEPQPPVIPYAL
Experimental: as §4, §3
Hepatocytes from mouse liver were isolated by a two-step collagenase procedure, as we described18,23 and cultured in media detailed in Supporting Methods. […] After 48 hr of transfection, cells were treated with TM (1 μg/ml) or LPS (100 ng/ml) for the determined times. […] Cell viability was determined by a colorimetric assay (MTT) detailed in Supporting Methods. […]

[7] = test system: primary hepatocytes isolated from the livers of BI-1−/− and WT mice; assay: Primary hepatocyte viability (MTT) with TM or LPS; assay type: cell-based, mouse
Experimental: Hepatocytes from mouse liver were isolated by a two-step collagenase procedure, as we described18,23 and cultured in media detailed in Supporting Methods. When indicated, primary hepatocytes were transfected with Stealth siRNA (targeting BI-1, IRE1α, XBP1 or CHOP with the corresponding control of Low or Medium CG) at 30 nM using Lipofectamine RNAiMAX (ThermoFisher Scientific, Courtaboeuf, France) according to the manufacturer's instructions. After 48 hr of transfection, cells were treated with TM (1 μg/ml) or LPS (100 ng/ml) for the determined times. Primary hepatocytes isolated from the livers of BI-1−/− and WT mice were treated with TM or LPS in the presence or absence of STF-083010 (60 μM) or Ac-YVAD-CMK (25 μM). Cell viability was determined by a colorimetric assay (MTT) detailed in Supporting Methods. Results are presented as a percentage of the control values.

[8] = BI-1−/− mice after 3 months of HFD
[9] = BI-1−/− mice, twice a week for 2 weeks towards the end of a 3-month HFD

## Ac-YVAD-CMK
[1]; HepG2, YVAD 25 μM added one hour before Sorafenib, not more efficiently than SFT-083010, FIG. 4
  effectiveness of sorafenib in inducing apoptosis: enhances
[2]; HepG2, YVAD 25 μM added one hour before Sorafenib, 24 hours, not more efficiently than SFT-083010, FIG. 4
  effectiveness of sorafenib in reducing liver cancer cell proliferation: enhances

## CN1C(=O)C(Cc2c[nH]c3ccccc23)NC1=S (stereo not shown) [Necrostatin-1]
[2]; HepG2, 50 μM pre-treatment, Sorafenib 5 μM, STF 60 μM, 24 hours, FIGS. 5A and 5B
  effect of Sorafenib and SFT-083010 on cancer cell proliferation after pre-treatment: inhibit the effect

## COc1cc2c(C)c(CC(=O)N3CCOCC3)c(=O)oc2c(C=O)c1O [MKC6688]
[2]
  liver cancer cell proliferation and apoptosis, alone and co-treated with sorafenib (confirmation of the STF-083010 data): confirmed
[3]; data not shown
  sorafenib-mediated tumor suppression (confirmation of the STF-083010 data): confirmed

## O=S(=O)(N=Cc1c(O)ccc2ccccc12)c1cccs1 [STF-083010, N-[(2-Hydroxy-1-naphthalenyl)methylene]-2-thiophenesulfonamide]
[4]
  overexpression of active caspase-11 and NLRP3: limited
[5]; BI-1-deficient mice, HFD
  NASH development: rescuing from NASH; also recorded: reverses the propensity
[5]; BI-1−/− HFD mice, 30 mg/kg twice a week for 2 weeks
  histological signs of inflammation and grade-3 steatosis: suppressed
[5]; BI-1−/− HFD-fed mice
  activation of caspase-1/-11 and NLRP3 proteins: counteracted the activation
  mRNA levels of NLRP3 inflammasome and pro-inflammatory response components: normalized
[5]; [8]
  collagen accumulation with cellular infiltration: prevented
  hepatic Col6a3 upregulation: significantly limited
[5]; BI-1−/− mice fed a HFD for 3 months, 30 mg/kg twice a week for 2 weeks
  liver discoloration (macroscopic): prevented
[5]; [9]
  IRE1a endoribonuclease activity in vivo: effectively counteracted
  glucose tolerance: improving
[5]; HFD-fed BI-1−/− mice, liver qPCR, FIG. 2B
  mRNA levels of metabolic master regulators (SREBP1, FASN and c-JUN): within normal mRNA levels
[5]; HFD-fed BI-1−/− mice, 30 mg/kg twice a week for 2 weeks
  lipid droplet diameter in hepatocytes: from massive to average size
[5]; HFD-fed BI-1−/− mice, 30 mg/kg twice a week for 2 weeks, FIG. 1A
  liver triglyceride content: Normalized
[5]; HFD-fed mice, both genotypes
  liver injury: protected from liver injury
[5]; HFD-fed mice, FIG. 2C
  blood glucose concentrations: normalization
[5]; ND-fed mice
  appearance of the liver: did not alter
[5]; STF-083010-treated versus untreated mice fed a HFD
  MPO-positive cells: significant decrease
[5]; WT mice fed a HFD, FIG. 1C
  increase in BI-1 mRNA levels: 15%
[5]; livers from BI-1−/− mice, HFD
  CHOP/GRP78 ratio, protein and mRNA levels: reduced
  expression of IRE1α RNase target sXBP1, protein and mRNA levels: reduced
[1]; HCC cell lines, co-treated with Sorafenib 5 μM, STF 60 μM, FIG. 3B
  effectiveness of sorafenib in inducing apoptosis: improves their effectiveness
[2]; HepG2, Huh7 and Hep3B, 60 μM alone, 24 hours, FIG. 3A
  liver cancer cell proliferation: reduces
[2]; co-treated with Sorafenib 5 μM, STF 60 μM added one hour before, 24 hours, FIG. 3A
  effectiveness of sorafenib in reducing liver cancer cell proliferation: improves their effectiveness
[6]
  XBP1 mRNA levels: decrease
  sXBP1 protein: decrease
[7]; STF-083010 alone, 60 μM
  viability of WT hepatocytes: compromised the viability
[7]; co-treated with TM and LPS, STF-083010 60 μM
  viability of BI-1−/− hepatocytes: improved the viability
[3]; STF-083010 30 mg/kg i.p. twice a week with Sorafenib 30 mg/kg i.p. daily, FIG. 6B
  sorafenib-mediated tumor suppression (tumor volume): increased

## Cc1cc(=O)oc2c(C=O)c(O)ccc12 [4μ8c]
[2]
  liver cancer cell proliferation and apoptosis, alone and co-treated with sorafenib (confirmation of the STF-083010 data): confirmed

Source: patent US20240024281A1, “METHODS AND COMPOSITIONS FOR TREATING LIVER DISEASES” (INSTITUT NATIONAL DE LA SANTÉ ET DE LA RECHERCHE MÉDICALE, priority 2018, published 2024)
